Structures can show the parent of a compound that is named as a salt.
T1: SmTAL3 (Sm20.8) (Schistosoma mansoni, UniProt P91804)
T1 construct: gene Sm 20.8; recombinant, E. coli, N-terminal GST fusion cleaved with thrombin; EF-hand-like N-terminal plus DLC-like C-terminal domain; dimer and higher oligomers
T1 sequence (P91804 1-181): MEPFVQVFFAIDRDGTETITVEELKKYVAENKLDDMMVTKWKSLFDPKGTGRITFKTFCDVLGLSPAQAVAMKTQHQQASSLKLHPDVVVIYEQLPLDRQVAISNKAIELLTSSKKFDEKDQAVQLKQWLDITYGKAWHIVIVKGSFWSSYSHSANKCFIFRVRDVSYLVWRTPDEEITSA

T2: SmTAL1 (Sm22.6) (Schistosoma mansoni, UniProt P14202)
T2 construct: gene A12; recombinant, E. coli, N-terminal GST fusion cleaved with thrombin; EF-hand N-terminal plus DLC-like C-terminal domain; dimer
T2 sequence (P14202 1-190): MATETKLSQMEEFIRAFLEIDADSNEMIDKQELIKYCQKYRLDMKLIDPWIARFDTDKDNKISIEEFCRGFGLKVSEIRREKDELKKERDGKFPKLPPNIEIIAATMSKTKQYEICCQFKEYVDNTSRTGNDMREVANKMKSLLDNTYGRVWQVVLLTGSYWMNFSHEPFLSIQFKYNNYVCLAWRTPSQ

T3: SmTAL2 (Sm21.7) (Schistosoma mansoni, UniProt P32070)
T3 construct: recombinant, E. coli, N-terminal GST fusion cleaved with thrombin; EF-hand N-terminal plus DLC-like C-terminal domain; dimer
T3 sequence (P32070 1-184): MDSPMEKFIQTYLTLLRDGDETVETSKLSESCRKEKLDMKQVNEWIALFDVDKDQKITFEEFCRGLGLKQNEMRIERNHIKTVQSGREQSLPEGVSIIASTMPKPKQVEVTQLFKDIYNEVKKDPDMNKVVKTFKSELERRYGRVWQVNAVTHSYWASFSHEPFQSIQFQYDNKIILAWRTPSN


Columns and labels:
SmTAL3 (Sm20.8) = target: T1, SmTAL3 (Sm20.8); assay: differential scanning fluorimetry (Sypro Orange); assay type: binding; settings: 250 µM; 0.25 mM drug, 7 μM protein, 1% DMSO, 0.8 mM CaCl2, 50 mM Hepes pH 7.5, 150 mM NaCl; absolute Tm, not a shift (DMSO control in the 1st table, row 5)
Text: differential scanning fluorimetry (Sypro Orange) on SmTAL3 (Sm20.8)

SmTAL1 (Sm22.6) = target: T2, SmTAL1 (Sm22.6); assay: differential scanning fluorimetry (Sypro Orange); assay type: binding; settings: 250 µM; 0.25 mM drug, 5 μM protein, 1% DMSO, 0.8 mM CaCl2, 50 mM Hepes pH 7.5, 150 mM NaCl; absolute Tm, not a shift (DMSO control in the 1st table, row 5)
Text: differential scanning fluorimetry (Sypro Orange) on SmTAL1 (Sm22.6)

SmTAL2 (Sm21.7) = target: T3, SmTAL2 (Sm21.7); assay: limited proteolysis protection (trypsin, chymotrypsin); assay type: binding; settings: 250 μM drug, 10 μM protein, 1% DMSO, 0.8 mM CaCl2, 37 °C
[1] = target: SmTAL3 (Schistosoma mansoni tegumental allergen-like protein 3) (Schistosoma mansoni); assay: cross-linking; BS3 (50, 150, 500 μM) with 10-15 μM protein in buffer R (50 mM Hepes-OH pH 7.5, 150 mM NaCl, 10% v/v glycerol), 37 °C, 35 min; with 0.8 mM EGTA or 0.8 mM EGTA/1.6 mM calcium chloride; analysed by 15% SDS-PAGE
[2] = target: the molecule itself; assay: as above

Molecule | SmTAL3 (SmTAL3 (Sm20.8)) [°C] | melting temperature (Tm) (SmTAL1 (Sm22.6)) [°C] | other results
CN1CCN(CCCN2c3ccccc3Sc3ccc(C(F)(F)F)cc32)CC1 [trifluoperazine] | 73.9 ± 0.1 | 62.2 ± 0.8 | 
O=C(C1CCCCC1)N1CC(=O)N2CCc3ccccc3C2C1 (centres unmarked) [praziquantel] |  | 61.7 ± 0.2 | 
NCCCCCCNS(=O)(=O)c1cccc2c(Cl)cccc12 [W7, N-(6-Aminohexyl)-5-chloro-1-naphthalenesulfonamide hydrochloride] | 74.3 ± 0.1 | 61.5 ± 0.3 | limited proteolysis protection (trypsin, chymotrypsin) (SmTAL2 (Sm21.7)): Of the drugs tested, only W7 protected SmTAL2 from limited proteolysis by trypsin or chymotrypsin
CN(C)CCCN1c2ccccc2Sc2ccc(Cl)cc21 [chlorpromazine] | 74.1 ± 0.1 | 61.3 ± 0.3 | 
SmTAL3 (Schistosoma mansoni tegumental allergen-like protein 3) (natural protein) |  |  | stoichiometry N [1]: 2
SmTAL1 (Schistosoma mansoni tegumental allergen-like protein 1) (natural protein, UniProt P14202 1-190, looked up, SmTAL1 (Sm22.6), Schistosoma mansoni, GenBank AAA29922.1, Smp_045200.1; also called Sm22.6; source: E. coli, GST-fusion isolated on glutathione-agarose, cleaved with thrombin, free GST removed on Q-Sepharose; not shown: GST, N-terminal, cleaved) MATETKLSQMEEFIRAFLEIDADSNEMIDKQELIKYCQKYRLDMKLIDPWIARFDTDKDNKISIEEFCRGFGLKVSEIRREKDELKKERDGKFPKLPPNIEIIAATMSKTKQYEICCQFKEYVDNTSRTGNDMREVANKMKSLLDNTYGRVWQVVLLTGSYWMNFSHEPFLSIQFKYNNYVCLAWRTPSQ |  |  | stoichiometry N [2]: 2
SmTAL2 (Schistosoma mansoni tegumental allergen-like protein 2) (natural protein, UniProt P32070 1-184, looked up, SmTAL2 (Sm21.7), Schistosoma mansoni, GenBank AAA74050.1, Smp_086480.1; also called Sm21.7; source: E. coli, GST-fusion isolated on glutathione-agarose, cleaved with thrombin, free GST removed on Q-Sepharose; not shown: GST, N-terminal, cleaved) MDSPMEKFIQTYLTLLRDGDETVETSKLSESCRKEKLDMKQVNEWIALFDVDKDQKITFEEFCRGLGLKQNEMRIERNHIKTVQSGREQSLPEGVSIIASTMPKPKQVEVTQLFKDIYNEVKKDPDMNKVVKTFKSELERRYGRVWQVNAVTHSYWASFSHEPFQSIQFQYDNKIILAWRTPSN |  |  | stoichiometry N [2]: 2

Reference: paper PMC4300400, “Comparative biochemical analysis of three members of the Schistosoma mansoni TAL family: Differences in ion and drug binding properties” (Biochimie, 2015)
